Test results from ChEMBL document CHEMBL1201862, “PubChem BioAssay data set” (2004).
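Values below derive from 48-hour exposures of cells grown in 96-well plates, with endpoints linearly interpolated between the two concentrations bracketing the appropriate inhibition level. The concentration for 50% growth inhibition is given as GI50.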 The source made the active and inactive calls. Rule as the data show it: active = GI50 up to about 1.1 µM and inactive = higher.

Assays:
Assay in all cases: NCI-60 cell line screen, 48 h
[1] = system: SR
[2] = system: Hs-578T
[3] = system: NCI-H23
[4] = system: OVCAR-8
[5] = system: NCI-H460
[6] = system: HCT-116
[7] = system: ACHN
[8] = system: CCRF-CEM
[9] = system: SNB-75
[10] = system: OVCAR-3
[11] = system: KM12
[12] = system: SN12C
[13] = system: SK-MEL-5
[14] = system: SK-OV-3
[15] = system: UACC-257
[16] = system: K562
[17] = system: HOP-92
[18] = system: SF-539
[19] = system: A549
[20] = system: T47D

SMILES | GI50 [1] | GI50 [2] | GI50 [3] | GI50 [4] | GI50 [5] | GI50 [6] | GI50 [7] | GI50 [8] | GI50 [9] | GI50 [10] | GI50 [11] | GI50 [12] | GI50 [13] | GI50 [14] | GI50 [15] | GI50 [16] | GI50 [17] | GI50 [18] | GI50 [19] | GI50 [20]
O=C1/C(=C\c2ccccc2)CN(C(=O)CCN2CCCCC2)C/C1=C/c1ccccc1 | 0.315 µM (active) | 0.0153 µM (active) | 1.89 µM (inactive) | 0.869 µM (active) | 2.35 µM (inactive) | 0.254 µM (active) | 1.95 µM (inactive) | 0.198 µM (active) | 0.834 µM (active) | 2.28 µM (inactive) | 0.379 µM (active) | 0.966 µM (active) | 1.17 µM (inactive) | 4.01 µM (inactive) | 1.76 µM (inactive) | 0.179 µM (active) | 3.55 µM (inactive) | 3.25 µM (inactive) | 3.73 µM (inactive) | 
O=C(c1ccco1)N(C(=S)N1CCN(c2ccccn2)CC1)c1ccccc1 | > 100 µM (inactive) |  | > 100 µM (inactive) | > 100 µM (inactive) | > 100 µM (inactive) | > 100 µM (inactive) | > 100 µM (inactive) | > 100 µM (inactive) | > 100 µM (inactive) | > 100 µM (inactive) | > 100 µM (inactive) | > 100 µM (inactive) | > 100 µM (inactive) | > 100 µM (inactive) | > 100 µM (inactive) | > 100 µM (inactive) | > 100 µM (inactive) | > 100 µM (inactive) | > 100 µM (inactive) | 
CSc1cc(Br)ccc1-n1c(C(=O)c2ccccc2)c(SC)n(-c2ccccc2)c1=O | 74.5 µM (inactive) | > 100 µM (inactive) | 86.3 µM (inactive) | > 100 µM (inactive) | 50.9 µM (inactive) | 49.3 µM (inactive) | > 100 µM (inactive) |  | > 100 µM (inactive) | > 100 µM (inactive) | > 100 µM (inactive) | > 100 µM (inactive) | 67.8 µM (inactive) | > 100 µM (inactive) | > 100 µM (inactive) | 4.81 µM (inactive) | > 100 µM (inactive) | > 100 µM (inactive) | > 100 µM (inactive) | 
O=C1c2cccc(NCCNCCO)c2C(=O)c2cccc(NCCNCCO)c21 | 0.519 µM (active) |  | 1.87 µM (inactive) | 0.989 µM (active) | 1.55 µM (inactive) | 0.43 µM (active) | 2.55 µM (inactive) | 0.267 µM (active) | 1.03 µM (active) | 1.57 µM (inactive) | 0.792 µM (active) | 0.782 µM (active) | 1.69 µM (inactive) | 2.26 µM (inactive) | 3.04 µM (inactive) | 1.12 µM (active) | 0.507 µM (active) | 0.601 µM (active) | 1.56 µM (inactive) | 1.69 µM (inactive)
O=C1CC(CC(O)C(O)CO)CC(=O)N1 (configuration not stated) |  | > 100 µM (inactive) | > 100 µM (inactive) | > 100 µM (inactive) | > 100 µM (inactive) | > 100 µM (inactive) | > 100 µM (inactive) | > 100 µM (inactive) |  | > 100 µM (inactive) | > 100 µM (inactive) | > 100 µM (inactive) | > 100 µM (inactive) |  | > 100 µM (inactive) | > 100 µM (inactive) | > 100 µM (inactive) | > 100 µM (inactive) | > 100 µM (inactive) | > 100 µM (inactive)
COC(=O)CCCc1nc2ccccc2nc1/N=N/c1ccccc1 | 20.8 µM (inactive) |  | 39 µM (inactive) | 22 µM (inactive) | 49.8 µM (inactive) | 30.3 µM (inactive) | 74 µM (inactive) | 30.1 µM (inactive) | 38.5 µM (inactive) | 31.3 µM (inactive) | 37.1 µM (inactive) | 51.5 µM (inactive) | 61.1 µM (inactive) | > 100 µM (inactive) | 45.9 µM (inactive) | 19.3 µM (inactive) | > 100 µM (inactive) | 70.8 µM (inactive) | 29.9 µM (inactive) | 45.7 µM (inactive)
COc1ccc(/C=C2\CCC(C)C3C2=NN(c2ccccc2)C3c2ccc(OC)c(OC)c2)cc1OC (configuration not stated) |  | 7.29 µM (inactive) | 4.21 µM (inactive) | 3.28 µM (inactive) |  | 2.07 µM (inactive) | 3.84 µM (inactive) | 1.87 µM (inactive) | 1.18 µM (inactive) | 5.04 µM (inactive) | 2.46 µM (inactive) | 4.1 µM (inactive) | 3.61 µM (inactive) | 4.23 µM (inactive) | 4.34 µM (inactive) | 2.01 µM (inactive) |  | 2.48 µM (inactive) |  | 1.71 µM (inactive)
C[C@H](OCc1ccccc1)C(=O)N1CCS(=O)(=O)N2CCC[C@@H]2C1=O | > 100 µM (inactive) |  | > 100 µM (inactive) | > 100 µM (inactive) | > 100 µM (inactive) | > 100 µM (inactive) | > 100 µM (inactive) | > 100 µM (inactive) | > 100 µM (inactive) | > 100 µM (inactive) | > 100 µM (inactive) | > 100 µM (inactive) | > 100 µM (inactive) | > 100 µM (inactive) | > 100 µM (inactive) | > 100 µM (inactive) | > 100 µM (inactive) | > 100 µM (inactive) | > 100 µM (inactive) | 
Cc1ccc(NC(=O)C(=O)CC(=O)c2c(C)[n+]([O-])c3ccccc3[n+]2[O-])cc1C | 33.5 µM (inactive) |  | > 100 µM (inactive) | > 100 µM (inactive) | 83 µM (inactive) | > 100 µM (inactive) | > 100 µM (inactive) | 63.1 µM (inactive) | > 100 µM (inactive) | 48.4 µM (inactive) | > 100 µM (inactive) | > 100 µM (inactive) | > 100 µM (inactive) | > 100 µM (inactive) | > 100 µM (inactive) | > 100 µM (inactive) | > 100 µM (inactive) | > 100 µM (inactive) | > 100 µM (inactive) | 
O=C1c2cccc(NCCCNCCO)c2C(=O)c2cccc(NCCCNCCO)c21 |  | 0.627 µM (active) | 1.81 µM (inactive) | 2.16 µM (inactive) | 1.68 µM (inactive) |  | 2.08 µM (inactive) | 0.701 µM (active) |  | 3.05 µM (inactive) | 2.12 µM (inactive) | 0.935 µM (active) | 2 µM (inactive) | 2.25 µM (inactive) | 6.08 µM (inactive) |  | 1.55 µM (inactive) | 1.49 µM (inactive) | 2 µM (inactive) | 3.27 µM (inactive)
CC1=C(C#N)C23C(=O)c4ccccc4C(=O)C2=C(O)C=CC3(O)N1 (configuration not stated) | 0.269 µM (active) |  | 3.84 µM (inactive) | 5.09 µM (inactive) | 5.46 µM (inactive) | 5.68 µM (inactive) | 1.53 µM (inactive) | 0.365 µM (active) | 2.3 µM (inactive) | 0.861 µM (active) | 9.08 µM (inactive) | 2.24 µM (inactive) | 1.06 µM (active) | 52 µM (inactive) | 2.07 µM (inactive) | 1.15 µM (inactive) | 2.12 µM (inactive) | 2.86 µM (inactive) | 1.67 µM (inactive) | 7.4 µM (inactive)
Nc1ccc2c(c1)NCCN2 | 1.69 µM (inactive) | 7.76 µM (inactive) | 78.9 µM (inactive) | 50.9 µM (inactive) | 4.39 µM (inactive) | > 100 µM (inactive) | 6.53 µM (inactive) |  | > 100 µM (inactive) | > 100 µM (inactive) | > 100 µM (inactive) | 48.8 µM (inactive) | 5.11 µM (inactive) |  | 82 µM (inactive) | 18.3 µM (inactive) | > 100 µM (inactive) | 14.7 µM (inactive) | 18.2 µM (inactive) | 
CCSC1SC(c2ccccc2)(c2ccccc2)c2ccccc21 (configuration not stated) |  | 54.3 µM (inactive) | 47.9 µM (inactive) | 64.7 µM (inactive) | 36.9 µM (inactive) | 30.8 µM (inactive) | 44.7 µM (inactive) | 54 µM (inactive) | 87.9 µM (inactive) | 23.8 µM (inactive) | 38.5 µM (inactive) | 38.3 µM (inactive) | 26.4 µM (inactive) | > 100 µM (inactive) | 26.4 µM (inactive) | 62.4 µM (inactive) | 30.8 µM (inactive) | > 100 µM (inactive) | 46 µM (inactive) | 
CCN(CC)CCNC(=O)c1ccc([N+](=O)[O-])cc1OC | > 100 µM (inactive) |  | > 100 µM (inactive) | > 100 µM (inactive) | > 100 µM (inactive) | > 100 µM (inactive) | > 100 µM (inactive) | > 100 µM (inactive) | > 100 µM (inactive) | > 100 µM (inactive) | > 100 µM (inactive) | > 100 µM (inactive) | > 100 µM (inactive) | > 100 µM (inactive) | > 100 µM (inactive) | > 100 µM (inactive) | > 100 µM (inactive) | > 100 µM (inactive) | > 100 µM (inactive) | 
Sc1nn2c(COc3ccc(Cl)cc3)nnc2s1 | > 100 µM (inactive) |  | > 100 µM (inactive) | > 100 µM (inactive) | > 100 µM (inactive) | > 100 µM (inactive) | > 100 µM (inactive) |  | > 100 µM (inactive) | > 100 µM (inactive) | > 100 µM (inactive) | > 100 µM (inactive) | > 100 µM (inactive) | > 100 µM (inactive) | > 100 µM (inactive) | > 100 µM (inactive) | > 100 µM (inactive) | > 100 µM (inactive) | > 100 µM (inactive) | > 100 µM (inactive)
COc1ccc(-c2oc3cc(O)cc(O)c3c(=O)c2OC)cc1 [ERMANIN] | 19.5 µM (inactive) |  |  | 44.1 µM (inactive) | 25.4 µM (inactive) | 39.9 µM (inactive) | 24.3 µM (inactive) | 22.1 µM (inactive) |  | 21 µM (inactive) |  |  | 16.7 µM (inactive) | 4.66 µM (inactive) | 59.8 µM (inactive) | 9.79 µM (inactive) | 3.23 µM (inactive) |  | 34.9 µM (inactive) | 31 µM (inactive)
